Biological target: T1, human interleukin-1β converting enzyme (ICE), wild type, autoprocessed p20/p10 from p30 precursor (residues Asn 120 to His 404 of p45), SEQ ID No: 1 (Homo sapiens, UniProt P29466)
T1 construct: the concomitant appearance of the p20 and p10 subunits, was monitored by SDS-PAGE, evidence that autocatalytic processing of the enzyme had occurred; made in house
T1 sequence (P29466 120-297): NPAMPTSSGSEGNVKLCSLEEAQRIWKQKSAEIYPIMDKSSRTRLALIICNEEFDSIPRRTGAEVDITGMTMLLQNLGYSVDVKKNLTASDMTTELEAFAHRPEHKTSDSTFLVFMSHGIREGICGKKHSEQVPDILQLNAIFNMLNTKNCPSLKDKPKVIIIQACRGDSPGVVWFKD
T1 sequence (P29466 317-404): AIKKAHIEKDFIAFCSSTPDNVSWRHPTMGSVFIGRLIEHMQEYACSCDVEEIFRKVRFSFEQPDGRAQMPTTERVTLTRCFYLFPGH
Test: Inhibition of autoprocessed ICE by tetrapeptide aldehyde inhibitor (activity assayed by hydrolysis of Succinyl-Tyr-Val-Ala-Asp-p-nitroanilide)
Type: biochemical
Conditions: 2× molar excess of inhibitor over enzyme
Description: The protein was concentrated to 3-5 mg/ml by ultrafiltration at 4° C., followed by incubation at room temperature. The disappearance of the p30 precursor, and the concomitant appearance of the p20 and p10 subunits, was monitored by SDS-PAGE, evidence that autocatalytic processing of the enzyme had occurred. ICE enzymatic activity was assayed by hydrolysis of a Succinyl-Tyr-Val-Ala-Asp-p-nitroanilide substrate at 37° C. and correlated closely with conversion to subunits.
The protein-inhibitor complex sample was concentrated and fractionated by size-exclusion chromatography, in final preparation for crystallization experiments.

CC(=O)N[C@@H](Cc1ccc(O)cc1)C(=O)N[C@H](C(=O)N[C@@H](C)C(=O)N[C@H](C=O)CC(=O)O)C(C)C [acetyl-Tyr-Vol-Ala-Asp-H]
inhibition of autoprocessed ICE: inhibited fully

Reference: patent publication US6057119A, “Crystal structure and mutants of interleukin-1β converting enzyme” (Vertex Pharmaceuticals, Incorporated, priority 1995, dated 2000)
